Measurements: the METLIN SMRT retention time set (Domingo-Almenara et al. 2019)

Assay: gradient 5% acetonitrile 3 min, to 50% in 2 min, to 85% in 15 min, held 3 min, 100 µL/min
Conditions: column: Zorbax Extend-C18 2.1 x 50 mm; eluents: water / acetonitrile, 0.1% formic acid
Method in brief: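 Retention times of pure standards were taken from adduct peaks that were selected by computer and manually inspected. Over 3 months, mixtures of ~100 molecules were run by HPLC–quadrupole time-of-flight mass spectrometry in positive and negative ionization mode. The Zorbax Extend-C18 column (2.1 × 50 mm, 1.8 μm) ran at 100 μL/min in water and acetonitrile, each containing 0.1% formic acid, with 40 μL dead volume and 900 μL dwell volume.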

| Compound | RP-LC retention time [s] |
| --- | --- |
| O=C(NCCCN1CCc2ccccc2C1)c1nnc(-c2ccc(S(=O)(=O)N3CCCC3)cc2)o1 | 680 |
| CC(C)N1CCCn2cc(S(=O)(=O)NC3CCCCCC3)cc2C1=O | 817 |
| O=C(NCc1ccco1)Nc1cccn2c(C3CCC3)nnc12 | 694 |
| CC(C)n1nc(CNC(=O)c2ccc(F)c(F)c2)c2ccccc21 | 962 |
| O=C(COc1ccc2ccccc2c1)NCC1CCN(C2CCCC2)CC1 | 590 |
| COc1cc(OC)c(NC(=O)c2[nH]c(C)c(S(=O)(=O)N3CCCC3)c2C)cc1Cl | 982 |
| Cn1cc(-c2cc3n(n2)CCC(=O)N3CC(=O)NCCCN2CCOCC2)c2ccccc21 | 603 |
| CN1C(=O)c2cccn2CC1C(=O)NCc1ccco1 (stereo not given) | 613 |
| CC1(C(=O)NCc2ccccc2)CCCN(C(=O)Nc2ccccc2C(F)(F)F)C1 (stereo not given) | 958 |
| Cc1ccc(N(CN2CCCC2=O)C(=O)c2ccc(C)c(C)c2)cc1 | 783 |
| O=C(Nc1ccc(-c2nc(-c3ccccc3)no2)cc1)C1CC(=O)N(c2ccccc2)C1 (stereo not given) | 1030 |
| CCNC(=O)C1CCCN(C(=O)Nc2ccc(NC(=O)Nc3ccc(CC)cc3)cc2)C1 (stereo not given) | 773 |
| O=C1CC(c2ccccc2)N(C2CCC2)CCCCCN1 (stereo not given) | 595 |
| CC(=O)N1CCc2cc(N3CC(C(=O)Nc4cc(Cl)ccc4F)CC3=O)ccc21 (stereo not given) | 768 |
| CCOc1ccc(NC(=O)c2cccc(-n3cnnn3)c2)cc1 | 737 |
| CCc1nc(-c2cc(S(=O)(=O)NCC(=O)N3CCN(c4ccc(F)cc4)CC3)c(C)s2)no1 | 959 |
| Cc1ccc(NS(=O)(=O)c2ccc([N+](=O)[O-])cc2)c(-c2nc3ccccc3[nH]c2=O)c1 | 858 |
| COc1ccc(OC)c(NC(=O)c2cc(S(=O)(=O)N3CCCC(C)C3)cn2C)c1 (stereo not given) | 638 |
| Cn1cccc1C(=O)C(=O)Nc1ccccc1C(F)(F)F | 1060 |
| Cc1ccc2cccc(OC(=O)N3CCCCCC3)c2n1 | 789 |
| CCOC(=O)c1ccc(NC(=O)Cn2c(=O)n(-c3ccc(F)cc3)c(=O)c3c2cc(C)n3C)cc1 | 893 |
| Cc1cccc(N2C(=O)N(Cc3cccc(F)c3)S(=O)(=O)c3cccnc32)c1 | 1090 |
| COc1ccc(-c2cc3nn(CC(=O)Nc4ccc(F)cc4)c(=O)n3c(C)n2)cc1 | 914 |

| Compound | RP-LC retention time [s] |
| --- | --- |
| O=C(c1cc(F)cc(F)c1)N1CCCC(c2ccnc(-c3cccc(F)c3)n2)C1 (stereo not given) | 1120 |
| O=S(=O)(c1ccc2nc(N3CCN(c4ccccn4)CC3)ccc2c1)N1CCCCC1 | 649 |
| CC(C)CCNC(=O)N1CCN(c2ncccc2-c2nnc(C3CC3)o2)CC1 | 765 |
| CN(C)S(=O)(=O)c1ccc(-c2nnc(C(=O)N3CCC(Cc4ccccc4)CC3)o2)cc1 | 1080 |
| CN1C(=O)c2cc(C(=O)Nc3ccccc3Cl)nn2CC1(C)C(=O)NC1CCCCC1 (stereo not given) | 887 |
| Cc1cccc2nnc(N3CCC(C(=O)Nc4ccc(Cl)cc4)CC3)n12 | 656 |
| Fc1ccc(-n2cc(-c3noc(-c4nccc5ccccc45)n3)nn2)cc1 | 1120 |
| COC(=O)C1=CN(c2cc(OC)cc(OC)c2)c2ccc(F)cc2S1(=O)=O | 908 |
| CCc1nc(OCC(=O)NCc2ccc3c(c2)OCO3)c2ccccc2n1 | 902 |
| CNC(=O)[C@@H]1CN(C(=O)c2ccn(C)n2)C[C@H]1COC | 535 |
| CSc1ccccc1CN1CCC(CNC(=O)C(=O)Nc2ccon2)CC1 | 558 |
| COc1ccc(Cc2nnc3sc(-c4ccc(OC)cc4OC)nn23)cc1 | 1030 |
| CC(=O)Nc1ccc(C(=O)NC2CCN(c3cc(N4CCCC4)cnn3)C2)cc1 (stereo not given) | 598 |
| CCCNS(=O)(=O)c1ccc(-c2c(C)noc2C)cc1 | 835 |
| Cc1ccccc1NC(=O)Nc1cccnc1N(C)C | 590 |
| CC1CCN(Cc2csc(N3CCN(C(=O)CCCc4ccccc4)CC3)n2)CC1 | 715 |
| CCN(CC)CCNC(=O)c1cn(C)nc1S(=O)(=O)N1CCN(c2cccc(Cl)c2)CC1 | 711 |
| Cc1cc2c(cc1S(=O)(=O)N1CCCC1C(=O)N1CCc3ccccc3C1)OCC(=O)N2 (stereo not given) | 748 |
| COc1nccnc1N1CCC(N(C)C(=O)NCc2cccc(F)c2)C1 (stereo not given) | 697 |
| Cc1c(Cl)cccc1Nc1c(-c2ccc(C(=O)O)cc2)nc2cnccn12 | 796 |
| CCCCNC(=O)C(C)n1nc(C)c2c(C)n(-c3ccccc3)nc2c1=O (stereo not given) | 787 |
| CCN1C(=O)c2cccnc2Sc2cc(NC(=O)c3ccc(OC)cc3)ccc21 | 806 |
| Cc1ccc(NC(=O)Cn2nc(N3CCOCC3)c3ccccc3c2=O)c(C)c1 | 809 |

| Compound | RP-LC retention time [s] |
| --- | --- |
| COC(=O)c1[nH]c(C)c(CN(C)C(=O)c2ccc(Br)cc2)c1C | 876 |
| CCCS(=O)(=O)N1CCOc2ccc(NC(=O)C3CC3)cc2C1 | 754 |
| CCCNC(=O)C1CCCN(c2ccc(SCC(=O)NCc3cc(F)cc(F)c3)nn2)C1 (stereo not given) | 646 |
| Cc1cn(C)c(CC(=O)NCCCN2CCN(C)CC2)c1C(=O)O | 561 |
| Cc1cc(OCC(O)Cn2c(C3CC(=O)N(C(C)(C)C)C3)nc3ccccc32)cc(C)c1Cl (stereo not given) | 878 |
| CS(=O)(=O)N1CCC(CC(=O)NCCC2=CCCCC2)C1 (stereo not given) | 743 |
| CN(C)c1ncccc1C(=O)NC1CCCCC1 | 588 |
| CSc1ccc(NC(=O)N2CCc3c(c(-c4nc(C5CC5)no4)nn3C)C2)cc1 | 874 |
| Cc1nnc(CNC(=O)C(=O)Nc2ccon2)o1 | 534 |
| CCn1cnc(S(=O)(=O)N2CCCC(C(=O)NCc3ccc(C)cc3)C2)c1 (stereo not given) | 803 |
| Cc1ccc(-c2cc(C(=O)N(C)C)n(C)c2)cc1 | 891 |
| O=C1[C@H]2CN(Cc3c[nH]c4ccccc34)C[C@H]2C(=O)N1CCc1ccccc1 | 692 |
| CSc1cccc(NC(=O)Cn2cnc3nc(N4CCC(C(=O)NC5CC5)CC4)sc3c2=O)c1 | 696 |
| COc1ccc(-c2nc(N3CCSCC3)ncc2C(=O)O)cc1 | 854 |
| Cn1cccc1C(=O)N1CCN(c2cc(-c3ccc(Cl)cc3)[nH]n2)CC1 | 832 |
| Cn1c(N)c(S(=O)(=O)N2CCN(c3ccccc3F)CC2)c(=O)n(C)c1=O | 701 |
| COc1ccc(-c2ccc(=O)n(CCNC(=O)c3ccno3)n2)cc1 | 628 |
| Cc1ccc(CNC(=O)c2c(OCC(C)C)cc(=O)n3c2CCCCC3)o1 | 786 |
| Cc1ccc(NC(=O)c2cc(C)n3nc(C)cc3n2)cc1 | 994 |
| COCCN1C(=O)CCc2cc(NS(=O)(=O)c3ccc(OC)c(OC)c3)ccc21 | 569 |
| Fc1cccc(-c2noc(-c3ccc(N4CCN(C5CCCCC5)CC4)nc3)n2)c1 | 814 |
| COc1ccc(C(=O)N2CCC(COc3ccc(C(=O)NC(C)C)cc3)CC2)cc1F | 834 |
| COc1cc(Cl)c(C)cc1Nc1c(C(=O)N2CCC(C)CC2)cnc2nc(C)ccc12 | 706 |

| Compound | RP-LC retention time [s] |
| --- | --- |
| Cc1cccc(N2C(=O)CN(CCc3ccccc3)[C@H]3CS(=O)(=O)C[C@H]32)c1 | 826 |
| COc1cccc(-c2noc(COC(=O)C3=CN(Cc4ccccc4)S(=O)(=O)N=C3C)n2)c1 | 1110 |
| Cc1nnc(-c2coc(S(=O)(=O)N3CCCCCC3)c2)o1 | 824 |
| Oc1ccc2c3c1OC1C(O)CC[C@@]4(O)[C@@H](C2)N(CC2CCC2)CC[C@]314 (stereo not given in full) | 619 |
| Cc1ccc2c(Nc3ccc(C)c(C)c3)c(C(=O)N3CCOCC3)cnc2n1 | 593 |
| CC(C)CCNC(=O)c1ccc2c(c1)CCCN2S(C)(=O)=O | 846 |
| CCN(CC)C(=O)C1CCCN1S(=O)(=O)c1cc2c(cc1C)NC(=O)C(C)O2 (stereo not given) | 714 |
| CCOc1ccc(-c2ccc(=O)n(CCc3nc(-c4ccc(F)cc4)no3)n2)cc1 | 815 |
| O=C(COc1ccc(Br)cc1)NCc1ccc2c(c1)OCCCO2 | 933 |
| c1ccc2c(c1)[nH]c1c3ccccc3sc21 | 1160 |
| Cc1ccc(-c2cc(C(=O)N3CCCC3)n(C)c2)cc1 | 965 |
| COc1ccc2c(c1)C=C(C(=O)Nc1cc(OC)c(OC)c(OC)c1)CO2 | 909 |
| O=C(Nc1ccc(Br)cc1F)N1CCc2nc(-c3ccc(F)cc3)ncc2C1 | 1050 |
| COc1cc(NC(=O)c2ccc(-n3cnc(NC(=O)C4CC4)c3)cc2)cc(OC)c1 | 744 |
| CSc1ccccc1NC(=O)Cn1cnc(-c2cccs2)cc1=O | 749 |
| CCOc1ccc(CNC(=O)Cc2csc3nc(-c4ccc(C)c(C)c4)cn23)cc1OC | 810 |
| CNC(=O)c1cccc(NC(=O)N2CCC(Oc3ccccc3Cl)CC2)c1 | 899 |
| O=C(CCc1ccccc1)NCCc1c[nH]c2ccc(Cl)cc12 | 895 |
| N#Cc1ccc(CN2CC(n3cc(COc4ccc(F)cc4)nn3)C2)cc1 | 678 |
| CC(C)CCNC(=O)C1CCN(S(=O)(=O)c2ccc3c(c2)NC(=O)CO3)CC1 | 744 |
| Cc1ccc(NC(=O)Nc2ccccc2)c(=O)n1CC(=O)NCC1CCCO1 (stereo not given) | 697 |
